Measurements published in US20240226228A1, “ANTIMICROBIAL PEPTOID HAVING IMPROVED SELECTIVITY AND ANTIMICROBIAL COMPOSITION COMPRISING SAME” (priority 2021, published 2024).
Values after ≈ are worked out from the molar mass of the structure shown. Read-outs that look alike come from different tables or passages of the source. *1 amine or outer side, *2 acyl side, *3 side chain or, on linkers, in order; H or OH if unused. Where a SMILES comes first, the peptide text is derived from it. Where no end group is shown, it is not given here. [ ]: non-standard residue; d: D form. Gly(N(CH2)2(3-indolyl)) = O=C(O)CNCCc1c[nH]c2ccccc12; Gly(N-CH2CH2-imidazol-4-yl) = O=C(O)CNCCc1c[nH]cn1; Nspe = C[C@H](NCC(=O)O)c1ccccc1; X1 = O=C(CN(CCCCO)[*:1])[*:2]; Nlys = NCCCCNCC(=O)O

Columns and labels:
red blood cells = assay: Hemolysis assay; format: cell-based, Sprague-Dawley mouse
Description: To confirm cytotoxicity by the hemolytic activity of each peptoid synthesized in Example 1, hemolysis analysis was performed. The used blood was collected from a 13-week-old male Sprague-Dawley […] in a tube containing 158 UPS sodium heparin for preventing coagulation, and centrifuged at 4° C. for 10 minutes at 1,000 rpm. Afterward, the plasma was carefully removed, red blood cells were washed with phosphate-buffered saline (PBS: a mixed solution of 35 mM phosphate-buffered solution/150 mM NaCl, pH 7.4) three times and centrifuged at 1,000 rpm for 10 minutes. A 10% (v/v) red blood cell solution diluted in PBS was dispensed at 150 μL into a 96-well plate (microtiter plate), a peptoid solution was added at 50 μL, and 1% Triton X-100 was added. Afterward, the red blood cells were incubated at 37° C. for 1 hour, and the incubated 96-well plate was centrifuged at 1,000 rpm for 15 minutes. A supernatant was obtained and transferred to a new 96-well plate at 150 μL, and absorbance was measured using a spectrophotometer at 540 nm. Percent hemolysis may be calculated by the following Equation 1, and the corresponding results are shown in Tables 11 to 13. % Hemolysis=(A−C)/(B−C)×100 [Equation 1] In Equation 1, A is the absorbance of the peptoid solution at 540 nm, B is the absorbance of the 0.1% Triton X-100 at 540 nm, and C is the absorbance of the PBS solution at 540 nm.

S. aureus ATCC 25923 = tested on: S. aureus ATCC 25923
Description: (§1) To measure the antimicrobial activity of the peptoids synthesized in Example 1, an E. coli ATCC25922 strain as gram-negative bacteria and an S. aureus KCTC25923 strain as gram-positive bacteris, were treated with the peptoids, followed by measuring the minimum inhibitory concentration (MIC). Peptoids 1 and 2 are antimicrobial peptoids known in the art, and used as controls for comparing antimicrobial activity with a novel peptoid.
(§2) Specifically, the S. aureus KCTC25923 or E. coli ATCC25922 strain was inoculated into a Mueller Hinton Broth (MHB2) liquid medium in which cations had been adjusted in the medium, cultured at 37° C. for 18 hours, subcultured, and then incubated for 4 hours. Afterward, for each bacterial strain, an optical density (OD, 0.001) was adjusted so that the bacterial count became 2×10^5 to 5×10^5 colony-forming units (CFU) per mL, which was then diluted with a MHB2 liquid medium containing 0.02% bovine serum albumin and 0.001% acetic acid, and dispensed at 100 μL into a 96-well microplate. Using sterile water, a peptoid stock 40 times stronger than a concentration to be tested was subjected to two-fold serial dilution and assessed at six different concentrations, and the maximum value of the peptoid concentrations was 25 μM. Subsequently, the plate was incubated at 37° C. for 24 hours. Afterward, optical density (OD) values at 600 nm were measured using a microplate reader (Bio-Rad).
(§3) Each MIC value was determined as the average value of a value obtained through three independent experiments.
(§4) Referring to Table 22, to measure the antimicrobial activity of the peptoids synthesized in Example 3, an MIC was measured by treating gram-negative bacteria, that is, the E. coli ATCC25922 strain, and gram-positive bacteria, that is, the S. aureus ATCC25923 strain, with the peptoids. Here, Peptoid 1 is a conventionally known antimicrobial peptoid, and Omiganan is a derivative of indolicidin, which is an antimicrobial peptide, under clinical development, and was used as a control for comparing antimicrobial activity with the novel peptoid.

E. coli ATCC25922 = conditions: for antimicrobial activity (in words): E. coli and S. aureus, compared to Peptoid 1, parent peptoid or TFA salt as stated
Description: as §1, §2, §3, §4

[1] = Tables 11-13, 24 hours at 37° C., maximum concentration 25 μM

C[C@@H](c1ccccc1)N(CC(N)=O)C(=O)CN(CCCCN)C(=O)CN(C(=O)CN(C(=O)CN(CCCCN)C(=O)CN(C(=O)CN(C(=O)CN(CCCCN)C(=O)CN(C(=O)CN(CCCCN)C(=O)CNCCCCN)[C@@H](C)c1ccccc1)[C@@H](C)c1ccccc1)[C@@H](C)c1ccccc1)[C@@H](C)c1ccccc1)[C@@H](C)c1ccccc1 [Peptoid 49]
HC10 (red blood cells): >100/>100 μM
HC50 (red blood cells): >100/>100 μM
Hmax (100 μM) (red blood cells): 0.3 ± 0.3%
MIC S. aureus ATCC 25923 (S. aureus ATCC 25923; [1]): >25 µM

C[C@@H](c1ccccc1)N(CC(=O)N(CCCCN)CC(=O)N(CC(=O)N(CC(=O)N(CCCCN)CC(=O)N(CC(=O)N(CC(=O)N(CCCCN)CC(=O)N(CCCCN)CC(N)=O)[C@@H](C)c1ccccc1)[C@@H](C)c1ccccc1)[C@@H](C)c1ccccc1)[C@@H](C)c1ccccc1)C(=O)CN(C(=O)CNCCCCN)[C@@H](C)c1ccccc1 [Peptoid 52] (H-[Nlys][Nspe][Nspe][Nlys][Nspe][Nspe][Nlys][Nspe][Nspe][Nlys][Nlys]-NH2)
MIC S. aureus ATCC 25923 (S. aureus ATCC 25923; [1]): >25 µM

NC(=O)CN(CCc1c[nH]c2ccccc12)C(=O)CN(CCc1c[nH]c2ccccc12)C(=O)CN(CCCCO)C(=O)CN(CCc1c[nH]c2ccccc12)C(=O)CN(CCc1c[nH]c2ccccc12)C(=O)CN(CCCCO)C(=O)CN(CCc1c[nH]c2ccccc12)C(=O)CN(CCc1c[nH]c2ccccc12)C(=O)CN(CCCCO)C(=O)CN(CCc1c[nH]c2ccccc12)C(=O)CN(CCc1c[nH]c2ccccc12)C(=O)CNCCCCO [Peptoid 65] (H-[X1][Gly(N(CH2)2(3-indolyl))][Gly(N(CH2)2(3-indolyl))][X1][Gly(N(CH2)2(3-indolyl))][Gly(N(CH2)2(3-indolyl))][X1][Gly(N(CH2)2(3-indolyl))][Gly(N(CH2)2(3-indolyl))][X1][Gly(N(CH2)2(3-indolyl))][Gly(N(CH2)2(3-indolyl))]-NH2)
MIC E. coli ATCC25922 (E. coli ATCC25922; [1]): >25 µM
MIC S. aureus ATCC 25923 (S. aureus ATCC 25923; [1]): >25 µM

C[C@@H](c1ccccc1)N(CC(=O)N(CCCCO)CC(=O)N(CCc1c[nH]c2ccccc12)CC(=O)N(CCc1c[nH]c2ccccc12)CC(N)=O)C(=O)CN(CCCCO)C(=O)CN(CCCCO)C(=O)CN(C(=O)CN(C(=O)CN(CCCCO)C(=O)CN(C(=O)CN(C(=O)CNCCCCO)[C@@H](C)c1ccccc1)[C@@H](C)c1ccccc1)[C@@H](C)c1ccccc1)[C@@H](C)c1ccccc1 [Peptoid 66]
MIC E. coli ATCC25922 (E. coli ATCC25922; [1]): >25 µM
MIC S. aureus ATCC 25923 (S. aureus ATCC 25923; [1]): >25 µM

C[C@@H](c1ccccc1)N(CC(N)=O)C(=O)CN(CCCCN)C(=O)CN(CCCCN)C(=O)CN(C(=O)CN(C(=O)CN(CCCCN)C(=O)CN(C(=O)CN(CCc1c[nH]cn1)C(=O)CN(CCCCN)C(=O)CN(CCc1c[nH]c2ccccc12)C(=O)CN(CCc1c[nH]c2ccccc12)C(=O)CNCCCCN)[C@@H](C)c1ccccc1)[C@@H](C)c1ccccc1)[C@@H](C)c1ccccc1 [Peptoid 67] (H-[Nlys][Gly(N(CH2)2(3-indolyl))][Gly(N(CH2)2(3-indolyl))][Nlys][Gly(N-CH2CH2-imidazol-4-yl)][Nspe][Nlys][Nspe][Nspe][Nlys][Nlys][Nspe]-NH2)
MIC E. coli ATCC25922 (E. coli ATCC25922; ATCC25922): >25 µM
MIC S. aureus ATCC 25923 (S. aureus ATCC 25923; ATCC 25923): 25 µM (≈ 46.4 µg/mL)

C[C@@H](c1ccccc1)N(CC(N)=O)C(=O)CN(CCCCN)C(=O)CN(CCCCN)C(=O)CN(C(=O)CN(C(=O)CN(CCCCN)C(=O)CN(CCc1c[nH]cn1)C(=O)CN(C(=O)CN(CCCCN)C(=O)CN(CCc1c[nH]c2ccccc12)C(=O)CN(CCc1c[nH]c2ccccc12)C(=O)CNCCCCN)[C@@H](C)c1ccccc1)[C@@H](C)c1ccccc1)[C@@H](C)c1ccccc1 [Peptoid 68] (H-[Nlys][Gly(N(CH2)2(3-indolyl))][Gly(N(CH2)2(3-indolyl))][Nlys][Nspe][Gly(N-CH2CH2-imidazol-4-yl)][Nlys][Nspe][Nspe][Nlys][Nlys][Nspe]-NH2)
MIC E. coli ATCC25922 (E. coli ATCC25922; ATCC25922): >25 µM
MIC S. aureus ATCC 25923 (S. aureus ATCC 25923; ATCC 25923): 25 µM (≈ 46.4 µg/mL)

C[C@@H](c1ccccc1)N(CC(N)=O)C(=O)CN(CCCCN)C(=O)CN(CCCCN)C(=O)CN(C(=O)CN(CCc1c[nH]cn1)C(=O)CN(CCCCN)C(=O)CN(C(=O)CN(C(=O)CN(CCCCN)C(=O)CN(CCc1c[nH]c2ccccc12)C(=O)CN(CCc1c[nH]c2ccccc12)C(=O)CNCCCCN)[C@@H](C)c1ccccc1)[C@@H](C)c1ccccc1)[C@@H](C)c1ccccc1 [Peptoid 69] (H-[Nlys][Gly(N(CH2)2(3-indolyl))][Gly(N(CH2)2(3-indolyl))][Nlys][Nspe][Nspe][Nlys][Gly(N-CH2CH2-imidazol-4-yl)][Nspe][Nlys][Nlys][Nspe]-NH2)
MIC E. coli ATCC25922 (E. coli ATCC25922; ATCC25922): 25 µM (≈ 46.4 µg/mL)
MIC S. aureus ATCC 25923 (S. aureus ATCC 25923; ATCC 25923): 25 µM (≈ 46.4 µg/mL)

C[C@@H](c1ccccc1)N(CC(N)=O)C(=O)CN(CCCCN)C(=O)CN(CCCCN)C(=O)CN(CCc1c[nH]cn1)C(=O)CN(C(=O)CN(CCCCN)C(=O)CN(C(=O)CN(C(=O)CN(CCCCN)C(=O)CN(CCc1c[nH]c2ccccc12)C(=O)CN(CCc1c[nH]c2ccccc12)C(=O)CNCCCCN)[C@@H](C)c1ccccc1)[C@@H](C)c1ccccc1)[C@@H](C)c1ccccc1 [Peptoid 70] (H-[Nlys][Gly(N(CH2)2(3-indolyl))][Gly(N(CH2)2(3-indolyl))][Nlys][Nspe][Nspe][Nlys][Nspe][Gly(N-CH2CH2-imidazol-4-yl)][Nlys][Nlys][Nspe]-NH2)
MIC E. coli ATCC25922 (E. coli ATCC25922; ATCC25922): >25 µM
MIC S. aureus ATCC 25923 (S. aureus ATCC 25923; ATCC 25923): >25 µM

C[C@@H](c1ccccc1)N(CC(=O)N(CCCCN)CC(=O)N(CCc1c[nH]c2ccccc12)CC(=O)N(CCc1c[nH]c2ccccc12)CC(N)=O)C(=O)CN(CCCCN)C(=O)CN(CCc1c[nH]cn1)C(=O)CN(C(=O)CN(C(=O)CN(CCCCN)C(=O)CN(C(=O)CN(C(=O)CNCCCCN)[C@@H](C)c1ccccc1)[C@@H](C)c1ccccc1)[C@@H](C)c1ccccc1)[C@@H](C)c1ccccc1 [Peptoid 79, H-NLys-Nspe-Nspe-NLys-Nspe-Nspe-NHis-NLys-Nspe-NLys-NhTrp-NhTrp-NH2] (H-[Nlys][Nspe][Nspe][Nlys][Nspe][Nspe][Gly(N-CH2CH2-imidazol-4-yl)][Nlys][Nspe][Nlys][Gly(N(CH2)2(3-indolyl))][Gly(N(CH2)2(3-indolyl))]-NH2)
cytotoxicity against red blood cells / hemolysis (in words) (red blood cells): improved in toxicity
antimicrobial activity (in words) (E. coli ATCC25922): retained antimicrobial activity

C[C@@H](c1ccccc1)N(CC(=O)N(CCCCN)CC(=O)N(CCc1c[nH]c2ccccc12)CC(=O)N(CCc1c[nH]c2ccccc12)CC(N)=O)C(=O)CN(CCCCN)C(=O)CN(CCCCN)C(=O)CN(C(=O)CN(C(=O)CN(CCc1c[nH]cn1)C(=O)CN(C(=O)CN(C(=O)CNCCCCN)[C@@H](C)c1ccccc1)[C@@H](C)c1ccccc1)[C@@H](C)c1ccccc1)[C@@H](C)c1ccccc1 [Peptoid 80, H-NLys-Nspe-Nspe-NHis-Nspe-Nspe-NLys-NLys-Nspe-NLys-NhTrp-NhTrp-NH2] (H-[Nlys][Nspe][Nspe][Gly(N-CH2CH2-imidazol-4-yl)][Nspe][Nspe][Nlys][Nlys][Nspe][Nlys][Gly(N(CH2)2(3-indolyl))][Gly(N(CH2)2(3-indolyl))]-NH2)
cytotoxicity against red blood cells / hemolysis (in words) (red blood cells): improved toxicity
antimicrobial activity (in words) (E. coli ATCC25922): reduced antimicrobial activity

C[C@@H](c1ccccc1)N(CC(=O)N(CCCCN)CC(=O)N(CCc1c[nH]c2ccccc12)CC(=O)N(CCc1c[nH]c2ccccc12)CC(N)=O)C(=O)CN(CCCCN)C(=O)CN(CCCCN)C(=O)CN(C(=O)CN(C(=O)CN(CCCCN)C(=O)CN(C(=O)CN(C(=O)CNCCc1c[nH]cn1)[C@@H](C)c1ccccc1)[C@@H](C)c1ccccc1)[C@@H](C)c1ccccc1)[C@@H](C)c1ccccc1 [Peptoid 81, H-NHis-Nspe-Nspe-NLys-Nspe-Nspe-NLys-NLys-Nspe-NLys-NhTrp-NhTrp-NH2] (H-[Gly(N-CH2CH2-imidazol-4-yl)][Nspe][Nspe][Nlys][Nspe][Nspe][Nlys][Nlys][Nspe][Nlys][Gly(N(CH2)2(3-indolyl))][Gly(N(CH2)2(3-indolyl))]-NH2)
cytotoxicity against red blood cells / hemolysis (in words) (red blood cells): improved in toxicity
antimicrobial activity (in words) (E. coli ATCC25922): retained antimicrobial activity

ILRWPWWPWRRK-NH2 [Omiganan, reference compound]
Hmax (100 μM) (red blood cells): 0
MIC E. coli ATCC25922 (E. coli ATCC25922; ATCC25922): 12.5~25 μM
